PubChem BioAssay (NCI)
Several values for one entry are separate records, joined by “and”; a condition that tells them apart may be missing. Equal values may be shown once.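 Interpolation was linear, between the two tested concentrations surrounding the appropriate level; five concentrations were tested over 48 hours in 96-well plates. Abbreviation: GI50, concentration required for 50% inhibition of growth. Definition used: TGI = concentration required for complete inhibition of growth.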

Legend:
Experiment in all cases: NCI tumour cell line growth inhibition, 48 h
SK-OV-3 ovarian = tested on: SK-OV-3 ovarian
MOLT-4 leukemia = tested on: MOLT-4 leukemia
A549 NSCLC = tested on: A549 NSCLC
NCI-H522 lung = tested on: NCI-H522 lung
DMS 114 small cell lung = tested on: DMS 114 small cell lung
SF-268 CNS = tested on: SF-268 CNS
M19-MEL melanoma = tested on: M19-MEL melanoma
OVCAR-4 ovarian = tested on: OVCAR-4 ovarian
KM12 colon = tested on: KM12 colon
K-562 leukemia = tested on: K-562 leukemia
HCT-15 colon = tested on: HCT-15 colon
SF-295 CNS = tested on: SF-295 CNS
ACHN renal = tested on: ACHN renal
IGROV1 ovarian = tested on: IGROV1 ovarian
UACC-257 melanoma = tested on: UACC-257 melanoma
SNB-78 CNS = tested on: SNB-78 CNS
UACC-62 melanoma = tested on: UACC-62 melanoma
COLO 205 colon = tested on: COLO 205 colon
HT29 colon = tested on: HT29 colon
NCI-H460 lung = tested on: NCI-H460 lung
M14 melanoma = tested on: M14 melanoma
SNB-75 CNS = tested on: SNB-75 CNS
OVCAR-8 ovarian = tested on: OVCAR-8 ovarian
NCI-H23 lung = tested on: NCI-H23 lung
RPMI-8226 leukemia = tested on: RPMI-8226 leukemia
SK-MEL-5 melanoma = tested on: SK-MEL-5 melanoma
EKVX NSCLC = tested on: EKVX NSCLC
HCC-2998 colon = tested on: HCC-2998 colon
MALME-3M melanoma = tested on: MALME-3M melanoma
A498 renal = tested on: A498 renal
CCRF-CEM leukemia = tested on: CCRF-CEM leukemia
OVCAR-5 ovarian = tested on: OVCAR-5 ovarian
XF 498 CNS = tested on: XF 498 CNS
OVCAR-3 ovarian = tested on: OVCAR-3 ovarian
UO-31 renal = tested on: UO-31 renal
U251 CNS = tested on: U251 CNS
SW-620 colon = tested on: SW-620 colon
KM20L2 colon = tested on: KM20L2 colon
SNB-19 CNS = tested on: SNB-19 CNS
LXFL 529 NSCLC = tested on: LXFL 529 NSCLC
DLD-1 colon = tested on: DLD-1 colon
CAKI-1 renal = tested on: CAKI-1 renal
SK-MEL-2 melanoma = tested on: SK-MEL-2 melanoma
TK-10 renal = tested on: TK-10 renal
SK-MEL-28 melanoma = tested on: SK-MEL-28 melanoma
HOP-62 NSCLC = tested on: HOP-62 NSCLC
786-0 renal = tested on: 786-0 renal
MDA-MB-435 = tested on: MDA-MB-435
RXF 393 renal = tested on: RXF 393 renal
T-47D breast = tested on: T-47D breast
MDA-MB-231 breast = tested on: MDA-MB-231 breast
DU-145 prostate = tested on: DU-145 prostate
MDA-N = tested on: MDA-N
HL-60(TB) leukemia = tested on: HL-60(TB) leukemia
HOP-18 NSCLC = tested on: HOP-18 NSCLC
NCI-H226 lung = tested on: NCI-H226 lung
PC-3 prostate = tested on: PC-3 prostate
HS 578T breast = tested on: HS 578T breast
SN12C renal = tested on: SN12C renal
NCI/ADR-RES ovarian = tested on: NCI/ADR-RES ovarian
HOP-92 NSCLC = tested on: HOP-92 NSCLC
LOX IMVI melanoma = tested on: LOX IMVI melanoma
BT-549 breast = tested on: BT-549 breast
SF-539 CNS = tested on: SF-539 CNS
HCT-116 colon = tested on: HCT-116 colon

CCOC(=O)/C(=C/c1ccc(OC)c(OC)c1)C(=O)c1ccccc1
TGI (SK-OV-3 ovarian): 73.1 µM | TGI (MOLT-4 leukemia): 48.9 µM | TGI (A549 NSCLC): 90.2 µM | TGI (NCI-H522 lung): 29.1 µM | TGI (DMS 114 small cell lung): 32 µM | TGI (SF-268 CNS): 36.7 µM | TGI (M19-MEL melanoma): 44.1 µM | TGI (OVCAR-4 ovarian): 60.3 µM | TGI (KM12 colon): 31.5 µM | TGI (K-562 leukemia): > 100 µM | TGI (HCT-15 colon): 42 µM | TGI (SF-295 CNS): 46.9 µM | TGI (ACHN renal): 68.1 µM | TGI (IGROV1 ovarian): 51.4 µM | TGI (UACC-257 melanoma): 33.2 µM | TGI (SNB-78 CNS): 56.3 µM | TGI (UACC-62 melanoma): 29.5 µM | TGI (COLO 205 colon): 31.1 µM | TGI (HT29 colon): 30.8 µM | TGI (NCI-H460 lung): > 100 µM | TGI (M14 melanoma): 28.9 µM | TGI (SNB-75 CNS): 28.5 µM | TGI (OVCAR-8 ovarian): 76.8 µM | TGI (NCI-H23 lung): 35.6 µM | TGI (RPMI-8226 leukemia): 39.1 µM | TGI (SK-MEL-5 melanoma): 29.5 µM | TGI (EKVX NSCLC): 67.4 µM | TGI (HCC-2998 colon): 32.5 µM | TGI (MALME-3M melanoma): > 100 µM | TGI (A498 renal): 46.5 µM | TGI (CCRF-CEM leukemia): 55.1 µM | TGI (OVCAR-5 ovarian): 40.6 µM | TGI (XF 498 CNS): 29.9 µM | TGI (OVCAR-3 ovarian): 33.6 µM | TGI (UO-31 renal): 27.5 µM | TGI (U251 CNS): 65 µM | TGI (SW-620 colon): 48.5 µM | TGI (KM20L2 colon): 38.7 µM | TGI (SNB-19 CNS): 30.1 µM | TGI (LXFL 529 NSCLC): 25.3 µM | TGI (DLD-1 colon): 34.5 µM | TGI (CAKI-1 renal): 31.8 µM | TGI (SK-MEL-2 melanoma): > 100 µM | TGI (TK-10 renal): 65.4 µM | TGI (SK-MEL-28 melanoma): 28.5 µM | TGI (HOP-62 NSCLC): 35.6 µM | TGI (786-0 renal): > 100 µM

CC(=O)[O-].CC(=O)[O-].[Mn+2].c1ccc(/C(=N\Nc2ccccn2)c2ccccn2)cc1
GI50 (SK-OV-3 ovarian): 0.0509 µM | TGI (SK-OV-3 ovarian): 17.5 µM | GI50 (MOLT-4 leukemia): 0.00103 µM | TGI (MOLT-4 leukemia): 1.29 µM | TGI (A549 NSCLC): 14.4 µM | GI50 (NCI-H522 lung): 0.0289 µM | TGI (NCI-H522 lung): 0.277 µM | TGI (DMS 114 small cell lung): 0.0212 µM | TGI (SF-268 CNS): 13.5 µM | TGI (M19-MEL melanoma): 14.3 µM | TGI (OVCAR-4 ovarian): 24.5 µM | TGI (KM12 colon): 13.7 µM | GI50 (K-562 leukemia): 0.00305 µM | GI50 (HCT-15 colon): 0.0432 µM | TGI (HCT-15 colon): 16.1 µM | TGI (SF-295 CNS): 16.9 µM | TGI (ACHN renal): 4.44 µM | GI50 (IGROV1 ovarian): 0.0271 µM and 0.141 µM | TGI (IGROV1 ovarian): 3.59 µM | TGI (MDA-MB-435): 18.7 µM | GI50 (UACC-257 melanoma): 0.0496 µM | TGI (UACC-257 melanoma): 6.45 µM | TGI (RXF 393 renal): 14 µM | TGI (T-47D breast): 12 µM | TGI (UACC-62 melanoma): 1.13 µM | GI50 (MDA-MB-231 breast): 0.0399 µM | TGI (MDA-MB-231 breast): 16.3 µM | GI50 (HT29 colon): 0.00276 µM | TGI (HT29 colon): 11.3 µM | TGI (NCI-H460 lung): 1.14 µM | GI50 (M14 melanoma): 0.0349 µM | TGI (M14 melanoma): 1.38 µM | TGI (DU-145 prostate): 11.6 µM | TGI (MDA-N): 22.5 µM | TGI (SNB-75 CNS): 17.7 µM | GI50 (HL-60(TB) leukemia): 0.00173 µM | TGI (HL-60(TB) leukemia): 0.00504 µM | TGI (OVCAR-8 ovarian): 12.3 µM | GI50 (NCI-H23 lung): 0.00784 µM | TGI (NCI-H23 lung): 16.7 µM | TGI (RPMI-8226 leukemia): 7.04 µM | TGI (HOP-18 NSCLC): 14.3 µM | GI50 (SK-MEL-5 melanoma): 0.0567 µM | TGI (SK-MEL-5 melanoma): 5.38 µM | GI50 (EKVX NSCLC): 0.0187 µM | TGI (EKVX NSCLC): 19.9 µM | TGI (HCC-2998 colon): 14.8 µM | GI50 (MALME-3M melanoma): 0.0362 µM | TGI (MALME-3M melanoma): 16.8 µM | TGI (NCI-H226 lung): 3 µM | TGI (A498 renal): 30.6 µM | TGI (CCRF-CEM leukemia): 0.402 µM | TGI (OVCAR-3 ovarian): 0.00913 µM | TGI (UO-31 renal): 3.88 µM | TGI (U251 CNS): 8.15 µM | GI50 (SW-620 colon): 0.0535 µM | TGI (SW-620 colon): 14.5 µM | TGI (KM20L2 colon): 15.8 µM | TGI (PC-3 prostate): 14.5 µM | TGI (SNB-19 CNS): 16.7 µM | TGI (HS 578T breast): 70.2 µM | TGI (SN12C renal): 6.83 µM | GI50 (NCI/ADR-RES ovarian): 0.0251 µM | TGI (NCI/ADR-RES ovarian): 0.0989 µM | GI50 (HOP-92 NSCLC): 0.205 µM | TGI (HOP-92 NSCLC): 11 µM | TGI (LXFL 529 NSCLC): 17.2 µM | TGI (DLD-1 colon): 22.7 µM | TGI (LOX IMVI melanoma): 2.06 µM | GI50 (CAKI-1 renal): 0.0393 µM | TGI (CAKI-1 renal): 8.47 µM | TGI (BT-549 breast): 14.4 µM | TGI (TK-10 renal): 54.6 µM | TGI (SK-MEL-28 melanoma): 19.7 µM | TGI (HOP-62 NSCLC): 5.69 µM | TGI (SF-539 CNS): 0.665 µM | TGI (HCT-116 colon): 0.739 µM | GI50 (786-0 renal): 0.097 µM | TGI (786-0 renal): 13.8 µM
